Common to all, as to format: functional
The nature of experiment [1]: Growth inhibition of human MOLT4 cells assessed as cell growth at 15 ug/ml. The conditions noted are these: MOLT-4, read-out: Activity.
Experiment [2] can be described thus: Growth inhibition of human LOXIMVI cells assessed as cell growth at 15 ug/ml. The conditions noted are these: LOX IMVI, read-out: Activity.
Experiment [3] has as its system T47D. Briefly: Growth inhibition of human T47D cells assessed as cell growth at 15 ug/ml. The conditions noted are these: read-out: Activity.
Experiment [4] relates to NCI-H522. Kind of experiment: Growth inhibition of human NCI-H522 cells assessed as cell growth at 15 ug/ml. The conditions noted are these: read-out: Activity.

As to `CC(C)OC(=O)[C@H](C)NP(=O)(OC[C@H]1O[C@@H](n2cnc3sc4c(=O)[nH]c(N)nc4c32)C(F)(F)[C@@H]1OP(=O)(N[C@@H](C)C(=O)OC(C)C)Oc1ccccc1)Oc1ccccc1` (some centres not stated), the growth at 15 µg/mL in experiment [1] stood at 109%; in experiment [2], 102%; in experiment [3], 87.2%; in experiment [4], 77.7%.
Regarding `Nc1nc2c(sc3ncn([C@@H]4O[C@H](CO)[C@@H](O)C4(F)F)c32)c(=O)[nH]1`, the growth at 15 µg/mL was determined as 13.9% in experiment [1], 25.6% in experiment [2], 10.5% in experiment [3] and 34% in experiment [4].
Consider `CC(C)OC(=O)[C@H](C)NP(=O)(OC[C@H]1O[C@@H](n2cnc3sc4c(=O)[nH]c(N)nc4c32)C(F)(F)[C@@H]1O)Oc1ccccc1` (some centres not stated), for which the growth at 15 µg/mL in experiment [1] was found to be 94%; in experiment [2], 74.1%; in experiment [3], 64.5%; in experiment [4] it was 65.6%.

Values taken from ChEMBL document CHEMBL3616401, “Thiophene-expanded guanosine analogues of Gemcitabine” (2015).
